The values below come from PubChem BioAssay (NCI).

Assay in all cases: growth of human tumour cells (NCI), 48 h
Experiment [1] concerns NCI/ADR-RES ovarian.
The subject of experiment [2] is SNB-75 CNS.
Experiment [3] has as its system CCRF-CEM leukemia.
The subject of experiment [4] is UACC-62 melanoma.
Experiment [5] deals with 786-0 renal.
Experiment [6] relates to EKVX NSCLC.
Experiment [7] concerns HL-60(TB) leukemia.
In experiment [8] the test system is SK-MEL-5 melanoma.
For experiment [9], the system named is MALME-3M melanoma.
Experiment [10] deals with SR leukemia.

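Where inhibition never reached the appropriate level, the endpoint shown equals the highest concentration tested. Otherwise, values were interpolated linearly from a five-concentration, 48-hour dose response in 96-well plates. GI50 = concentration required for 50% inhibition of growth. The concentration for full growth arrest is given as TGI.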 Some results are limits rather than exact numbers.

For `Oc1ccc(CN2CCC(N3CCOCC3)CC2)c2cccnc12`, the GI50 in [1] was 29.2 µM; in [2], 11.9 µM; in experiment [3], 23.8 µM; in [4], 21.3 µM; in experiment [5], 42.2 µM; in experiment [6] it was 36.6 µM. Moreover, the GI50 is 22.7 µM in experiment [7], 23.2 µM in experiment [8], 29.1 µM in [9] and 34 µM in experiment [10]. The TGI in experiment [1] is greater than 100 µM; in experiment [2], greater than 100 µM; in experiment [3], greater than 100 µM; in experiment [4] it was 50.2 µM; in experiment [5], greater than 100 µM; in [6], greater than 100 µM. In addition, the TGI in experiment [7] is 51 µM; in experiment [8] it was 57 µM; in experiment [9], greater than 100 µM; in [10], greater than 100 µM.
For `COc1cc2cc(C(=O)CCC(=O)O)sc2cc1OC`, the GI50 in [1] is greater than 100 µM; in experiment [2] it was 12.7 µM; in experiment [3], greater than 100 µM; in experiment [4], greater than 100 µM; in [5], greater than 100 µM; in experiment [6], greater than 100 µM. The GI50 in experiment [7] is 28.3 µM; in experiment [8], greater than 100 µM; in experiment [9], greater than 100 µM; in experiment [10], 3.53 µM. Further, the TGI in [1], in experiment [2], in experiment [3], in experiment [4], in experiment [5] and in experiment [6] was greater than 100 µM throughout. Moreover, the TGI in experiment [7], in experiment [8], in experiment [9] and in experiment [10] was greater than 100 µM throughout.
Take `COc1cc(-c2nc3sccn3c2-c2ccnc(NCCNS(=O)(=O)c3ccc(Cl)cc3)n2)ccc1F`: the GI50 in experiment [1] was 2.89 µM; in [2], 4.48 µM; in experiment [3], 0.48 µM; in experiment [4], 1.39 µM; in experiment [5], 7.77 µM; in [6] it was 5.04 µM. Besides, the GI50 in experiment [7] is 3.74 µM; in experiment [8], 1.87 µM; in experiment [9], 3.35 µM; in experiment [10], 3.94 µM. The TGI is greater than 100 µM in experiment [1]; greater than 100 µM in [2]; greater than 100 µM in [3]; 5.2 µM in experiment [4]; greater than 100 µM in [5]; greater than 100 µM in experiment [6]. Further, the TGI in experiment [7] was greater than 100 µM; in experiment [8], 4.19 µM; in [9] it was greater than 100 µM; in experiment [10] it was greater than 100 µM.
Regarding `COC(=O)C1=C(C)NC(C)=C(C(=O)OC)C1/C=C(\Cl)c1ccc(Cl)c(Cl)c1`, the GI50 in experiment [1] is 16.4 µM; in [2] it was 8.25 µM; in experiment [3] it was 5.55 µM; in experiment [4], 6.42 µM; in experiment [5], 17 µM; in experiment [6] it was 10.7 µM. Besides, the GI50 in experiment [7] was 11.9 µM; in experiment [8], 15.2 µM; in experiment [9], 17.5 µM; in [10], 3.3 µM. In addition, the TGI in experiment [1] is 30.8 µM; in [2] it was 22.9 µM; in experiment [3], 31.6 µM; in experiment [4], 20.3 µM; in experiment [5] it was 30.8 µM; in experiment [6], 24.9 µM. Moreover, the TGI in experiment [7] was determined as 38.4 µM; in experiment [8] it was 28.5 µM; in experiment [9], 35.9 µM; in experiment [10] it was 22.4 µM.
`O=c1c2c3c(sc2n2c(-c4cc(-c5ccccc5)no4)nnc2n1Cc1ccccc1)CCCC3`: the GI50 in [1] was 30.2 µM; in experiment [2], 11.2 µM; in [3], 3.22 µM; in experiment [4], 17.1 µM; in [5] it was 20.5 µM; in experiment [6], 8.63 µM. Besides, the GI50 in [7] was 4.65 µM; in experiment [8], 9.77 µM; in experiment [9], 32.1 µM; in [10], 4.94 µM. Also, the TGI was greater than 100 µM in experiment [1]; greater than 100 µM in [2]; greater than 37.7 µM in experiment [3]; 44 µM in [4]; 98.9 µM in [5]; greater than 67.6 µM in [6]. Also, the TGI in experiment [7] was 29.9 µM; in [8] it was 22.9 µM; in [9], 97.3 µM; in experiment [10] it was greater than 42 µM.
For the molecule `CCC[CH2][Sn]([CH2]CCC)([O]C(=O)c1cc(F)ccc1F)[O][Sn]([CH2]CCC)([CH2]CCC)[O]C(=O)c1cc(F)ccc1F`, the GI50 is 0.522 µM in [1]; 0.365 µM in [2]; 0.0113 µM in experiment [3]; 0.206 µM in [4]; 0.158 µM in experiment [5]; 0.69 µM in [6]. Also, the GI50 in experiment [7] was 0.139 µM; in experiment [8] it was 0.626 µM; in experiment [9] it was 0.125 µM; in experiment [10], 0.14 µM. In addition, the TGI came to 1.88 µM in experiment [1]; 1.66 µM in [2]; 2.7 µM in experiment [3]; 0.665 µM in [4]; 0.405 µM in [5]; 2.11 µM in experiment [6]. In addition, the TGI is 2.6 µM in experiment [7], 1.83 µM in experiment [8], 0.339 µM in experiment [9] and greater than 22.3 µM in experiment [10].
As for `CC(C)c1c(C(=O)Nc2ccccc2)c(-c2ccccc2)c(-c2ccc(F)cc2)n1CC[C@@H]1CC=CC(=O)O1`, the GI50 in [1] was 2.46 µM; in [2], 1.43 µM; in [3] it was 0.39 µM; in experiment [4], 1.7 µM; in experiment [5], 1.68 µM; in [6], 1.86 µM. Besides, the GI50 in experiment [7] was 1.24 µM; in [8], 1.58 µM; in experiment [9], 1.76 µM; in experiment [10] it was 2.66 µM. Further, the TGI in experiment [1] is 6.09 µM; in experiment [2] it was 2.78 µM; in experiment [3], 2.44 µM; in [4], 3.37 µM; in experiment [5], 3.56 µM; in experiment [6], 3.68 µM. For the same molecule, the TGI was 6.42 µM in experiment [7], 2.94 µM in experiment [8], 3.41 µM in experiment [9] and 9.49 µM in experiment [10].
As for `CCCCOc1ccc(NC(=O)n2nc(N)c3ccccc32)cc1`, the GI50 in experiment [1] was 23.9 µM; in experiment [2] it was 29.6 µM; in [3], 0.0755 µM; in [4], 14.7 µM; in experiment [5], 19.7 µM; in [6], 17.4 µM. Besides, the GI50 was 0.813 µM in experiment [7], 14.9 µM in experiment [8], 18.9 µM in [9] and 16 µM in experiment [10]. Besides, the TGI in experiment [1] was determined as 71.1 µM; in experiment [2], 82.4 µM; in [3], 4.68 µM; in experiment [4] it was 38.3 µM; in [5] it was 48.4 µM; in experiment [6], 85.1 µM. Besides, the TGI was 21 µM in [7], 28.2 µM in experiment [8], 48.4 µM in experiment [9] and 39.5 µM in experiment [10].
With `CCOC(=O)/C(=N\OC)C(O)C(F)(F)F` (configuration not stated), the TGI in experiment [1], in experiment [2], in experiment [3], in [4], in [5] and in experiment [6] was greater than 100 µM each time. Moreover, the TGI in experiment [7], in experiment [8], in experiment [9] and in [10] was greater than 100 µM in each case.
As for `COc1cc2c(cc1OCCCCCOc1cc3c(cc1OC)C(=O)N1CC(F)C[C@H]1C=N3)N=C[C@@H]1CC(F)CN1C2=O` (some centres not stated), the GI50 in experiment [1] is 0.553 µM; in [2], 0.0488 µM; in [3], less than 0.01 µM; in [4] it was 0.0511 µM; in [5], less than 0.01 µM; in experiment [6] it was 1.1 µM. Also, the GI50 was less than 0.01 µM in experiment [7], 0.0511 µM in experiment [8], 0.124 µM in [9] and less than 0.01 µM in experiment [10]. For the same molecule, the TGI in experiment [1] is 9.87 µM; in experiment [2], greater than 100 µM; in experiment [3] it was 0.0713 µM; in experiment [4], 0.224 µM; in experiment [5], 0.16 µM; in experiment [6], 7.78 µM. For the same molecule, the figures for the TGI in experiment [7], in experiment [8] and in [9] were 2.39 µM, 0.127 µM and 0.733 µM, respectively.
Take `O=C1C2C(C(=O)[N]1[Hg][c]1cccs1)C1(Cl)C(Cl)=C(Cl)C2(Cl)C1(Cl)Cl` (configuration not stated): the GI50 in experiment [1] was 2.07 µM; in experiment [2], 1.37 µM; in experiment [3], 0.29 µM; in experiment [4], 1.27 µM; in experiment [5] it was 0.67 µM; in experiment [6] it was 1.83 µM. Also, the GI50 in [7] was 1.29 µM; in experiment [8] it was 1.55 µM; in experiment [9] it was 1.22 µM; in [10], 0.146 µM. Also, the TGI in [1] is 4.8 µM; in experiment [2] it was 4.81 µM; in experiment [4], 2.89 µM; in experiment [5], 1.81 µM; in [6], 4.2 µM; in experiment [7], 4.63 µM. Also, the TGI came out at 3.06 µM in [8] and 2.79 µM in experiment [9].
